# From patent publication US20230346961A1, “GLP-1 AND GIP RECEPTOR CO-AGONISTS” (Novo Nordisk A/S, priority 2020, published 2023)
# Starred links: 1 amine or outer side, 2 acyl side, 3 side chain; linkers in the order of their positions; H or OH if unused. Non-standard residues stand in square brackets, D forms with d. Residues, ends and D or L forms follow the SMILES beside them. Groups on a side chain read outwards from the residue. *: point of attachment. C18 diacid = O=C(O)CCCCCCCCCCCCCCCCC(=O)*; γGlu = O=C(O)[C@H](CCC(=O)[*:2])N[*:1]; εLys = N[C@@H](CCCCN[*:1])C(=O)[*:2]; Aib = CC(C)(N)C(=O)O
# Key:
# human GLP-1 receptor = human GLP-1 receptor (Homo sapiens, UniProt P43220); assay: cell-based; conditions: hGLP-1R
# Method: The in vitro functional potency is the measure of target receptor activation in a whole cell assay.
# In vitro functional potency was determined by measuring the response of the target receptor in a reporter gene assay in individual cell lines. […] When the respective receptor is activated, it results in the production of cAMP, which in turn results in expression of the luciferase protein. When assay incubation is completed, luciferase substrate (luciferin) is added resulting in the enzymatic conversion of luciferin to oxyluciferin and producing bioluminescence. The luminescence is measured as the readout for the assay.
# The cells lines used in these assays were BHK cells with BHKTS13 as a parent cell line. The cell lines were derived from a clone containing the CRE luciferase element and were established by further transfection with the respective receptor to obtain the relevant cell line.
# The cells were cultured at 37° C. with 5% CO2 in Cell Culture Medium. They were aliquoted and stored in liquid nitrogen. The cells were kept in continuous culture and were seeded out the day before each assay.
# GLP-1R and GcgR Cell Culture Medium consisted of DMEM medium with 10% FBS, 500 μg/mL G418, and 300 μg/mL hygromycin. GIPR Cell Culture Medium consisted of DMEM medium with 10% FBS, 400 μg/mL G418, and 300 μg/mL hygromycin. Assay Buffer consisted of DMEM w/o phenol red, 10 mM Hepes, 1×Glutamax, 1% ovalbumin, and 0.1% Pluronic F-68 with the addition of HSA at twice the final assay concentration.
# • 1) Cells were plated at 5000 cells/well and incubated overnight in the assay plate. • 2) Cells were washed once in DPBS. • 3) Stocks of the test compounds and reference compounds in concentrations ranging from 100-300 μM were diluted 1:150 in Assay Buffer. Compounds were then diluted 1:10 in column 1 of a 96 deep well dilution plate and then carried across the row creating a 3.5 fold, 12 point dilution curve. • 4) Assay Buffer (50 μl aliquot) with or without HSA was added to each well in the assay plate. • 5) A 50 μl aliquot of compound or blank was transferred from the dilution plate to the assay plate containing the Assay Buffer with or without HSA. • 6) The assay plate was incubated for 3 h in a 5% CO2 incubator at 37° C. 7) The cells were washed once with DPBS. • 8) A 100 μl aliquot of DPBS was added to each well of the assay plate. • 9) A 100 μl aliquot of steadylite plus reagent (light sensitive) was added to each well of the assay plate. • 10) Each assay plate was covered with aluminum foil to protect it from light and shaken at 250 RPM for 30 min at room temperature. • 11) Each assay plate was read in a microtiter plate reader.
# The data from the microtiter plate reader was first regressed in an Excel in order to calculate the x-axis, log scale concentrations based on the individual test compound's stock concentration and the dilutions of the assay. […] The software performs a non-linear regression (log(agonist) vs response). A minimum of two replicates was measured for each sample. The reported values are averages of the replicates.
# mouse GLP-1 receptor = target: T1, mouse GLP-1 receptor (Mus musculus, UniProt O35659)
# T1 sequence (O35659 22-463): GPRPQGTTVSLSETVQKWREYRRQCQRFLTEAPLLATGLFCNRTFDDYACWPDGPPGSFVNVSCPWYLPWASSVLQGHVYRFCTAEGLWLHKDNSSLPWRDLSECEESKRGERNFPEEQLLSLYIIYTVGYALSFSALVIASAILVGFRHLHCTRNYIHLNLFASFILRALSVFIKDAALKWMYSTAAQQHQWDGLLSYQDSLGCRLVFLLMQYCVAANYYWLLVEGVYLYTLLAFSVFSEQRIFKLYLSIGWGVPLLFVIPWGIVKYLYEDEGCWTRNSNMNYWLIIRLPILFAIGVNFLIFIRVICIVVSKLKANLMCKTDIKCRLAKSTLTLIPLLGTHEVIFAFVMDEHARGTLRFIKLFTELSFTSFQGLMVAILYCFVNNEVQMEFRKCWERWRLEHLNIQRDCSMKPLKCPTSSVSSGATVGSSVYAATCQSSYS
# Sequence of human GLP-1 receptor (P43220 24-463): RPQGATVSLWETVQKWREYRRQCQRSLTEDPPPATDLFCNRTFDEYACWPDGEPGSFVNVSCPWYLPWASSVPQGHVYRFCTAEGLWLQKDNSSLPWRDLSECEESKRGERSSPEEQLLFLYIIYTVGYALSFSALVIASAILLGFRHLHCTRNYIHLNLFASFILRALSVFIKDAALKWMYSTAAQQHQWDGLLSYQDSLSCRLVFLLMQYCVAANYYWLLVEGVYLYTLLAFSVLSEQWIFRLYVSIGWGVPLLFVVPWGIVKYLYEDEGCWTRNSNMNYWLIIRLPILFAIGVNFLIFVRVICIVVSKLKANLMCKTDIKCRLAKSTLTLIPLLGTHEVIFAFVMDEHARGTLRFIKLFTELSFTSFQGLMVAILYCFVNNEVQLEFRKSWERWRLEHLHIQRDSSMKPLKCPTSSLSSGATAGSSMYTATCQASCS
SMILES,"EC50 (human GLP-1 receptor; CRE Luc 0% HSA EC50, 0% HSA)","EC50 (human GLP-1 receptor; CRE Luc 1% HSA EC50, 1% HSA)",EC50 (mouse GLP-1 receptor)
CC[C@H](C)[C@H](NC(=O)[C@H](CO)NC(=O)[C@H](Cc1ccc(O)cc1)NC(=O)[C@H](CC(=O)O)NC(=O)[C@H](CO)NC(=O)[C@@H](NC(=O)[C@H](Cc1ccccc1)NC(=O)[C@@H](NC(=O)CNC(=O)[C@H](CCC(=O)O)NC(=O)C(C)(C)NC(=O)[C@@H](N)Cc1ccc(O)cc1)[C@@H](C)O)[C@@H](C)O)C(=O)N[C@@H](Cc1ccc(O)cc1)C(=O)N[C@@H](CC(C)C)C(=O)N[C@@H](CC(=O)O)C(=O)N[C@@H](CCCCN)C(=O)N[C@@H](CCC(N)=O)C(=O)N[C@@H](C)C(=O)N[C@@H](C)C(=O)NC(C)(C)C(=O)N[C@@H](CCC(=O)O)C(=O)N[C@@H](Cc1ccccc1)C(=O)N[C@H](C(=O)N[C@@H](CC(N)=O)C(=O)N[C@@H](Cc1c[nH]c2ccccc12)C(=O)N[C@@H](CC(C)C)C(=O)N[C@@H](CC(C)C)C(=O)N[C@@H](C)C(=O)NCC(=O)NCC(=O)N1CCC[C@H]1C(=O)N[C@@H](CO)C(=O)N[C@@H](CO)C(=O)NCC(=O)N[C@@H](C)C(=O)N1CCC[C@H]1C(=O)N1CCC[C@H]1C(=O)N1CCC[C@H]1C(=O)N[C@@H](CO)C(=O)N[C@@H](CCCCNC(=O)COCCOCCNC(=O)COCCOCCNC(=O)CC[C@H](NC(=O)CCCCCCCCCCCCCCCCC(=O)O)C(=O)O)C(N)=O)C(C)C [Compound 3],0.0134 nM,0.606 nM,–
CC[C@H](C)[C@H](NC(=O)[C@H](CO)NC(=O)[C@H](Cc1ccc(O)cc1)NC(=O)[C@H](CC(=O)O)NC(=O)[C@H](CO)NC(=O)[C@@H](NC(=O)[C@H](Cc1ccccc1)NC(=O)[C@@H](NC(=O)CNC(=O)[C@H](CCC(=O)O)NC(=O)C(C)(C)NC(=O)[C@@H](N)Cc1ccc(O)cc1)[C@@H](C)O)[C@@H](C)O)C(=O)N[C@@H](Cc1ccc(O)cc1)C(=O)N[C@@H](CC(C)C)C(=O)N[C@@H](CC(=O)O)C(=O)N[C@@H](CCCCN)C(=O)N[C@@H](CCC(N)=O)C(=O)N[C@@H](C)C(=O)N[C@@H](C)C(=O)NC(C)(C)C(=O)N[C@@H](CCC(=O)O)C(=O)N[C@@H](Cc1ccccc1)C(=O)N[C@H](C(=O)N[C@@H](CC(N)=O)C(=O)N[C@@H](Cc1c[nH]c2ccccc12)C(=O)N[C@@H](CC(C)C)C(=O)N[C@@H](CC(C)C)C(=O)N[C@@H](C)C(=O)NCC(=O)NCC(=O)N1CCC[C@H]1C(=O)N[C@@H](CO)C(=O)N[C@@H](CO)C(=O)NCC(=O)N[C@@H](C)C(=O)N1CCC[C@H]1C(=O)N1CCC[C@H]1C(=O)N1CCC[C@H]1C(=O)N[C@@H](CO)C(=O)N[C@@H](CCCCNC(=O)CCCCCCCCCCCCCCCCC(=O)O)C(N)=O)C(C)C [Compound 2],0.0675 nM,0.439 nM,–
CC[C@H](C)[C@H](NC(=O)[C@H](CO)NC(=O)[C@H](Cc1ccc(O)cc1)NC(=O)[C@H](CC(=O)O)NC(=O)[C@H](CO)NC(=O)[C@@H](NC(=O)[C@H](Cc1ccccc1)NC(=O)[C@@H](NC(=O)CNC(=O)[C@H](CCC(=O)O)NC(=O)[C@H](C)NC(=O)[C@@H](Cc1ccc(O)cc1)NC(C)=O)[C@@H](C)O)[C@@H](C)O)C(=O)N[C@@H](Cc1ccc(O)cc1)C(=O)N[C@@H](CC(C)C)C(=O)N[C@@H](CC(=O)O)C(=O)N[C@@H](CCCCN)C(=O)N[C@@H](CCC(N)=O)C(=O)N[C@@H](C)C(=O)N[C@@H](C)C(=O)NC(C)(C)C(=O)N[C@@H](CCCCNC(=O)[C@@H](N)CCCCNC(=O)[C@@H](N)CCCCNC(=O)CC[C@H](NC(=O)CCCCCCCCCCCCCCCCC(=O)O)C(=O)O)C(=O)N[C@@H](Cc1ccccc1)C(=O)N[C@H](C(=O)N[C@@H](CC(N)=O)C(=O)N[C@@H](Cc1c[nH]c2ccccc12)C(=O)N[C@@H](CC(C)C)C(=O)N[C@@H](CC(C)C)C(=O)N[C@@H](C)C(=O)NCC(=O)NCC(=O)N1CCC[C@H]1C(=O)N[C@@H](CO)C(=O)N[C@@H](CO)C(=O)NCC(=O)N[C@@H](C)C(=O)N1CCC[C@H]1C(=O)N1CCC[C@H]1C(=O)N1CCC[C@H]1C(=O)N[C@@H](CO)C(N)=O)C(C)C [Compound 8] (Ac-[dY]AEGTFTSDYSIYLDKQAA[Aib]K([εLys-εLys-γGlu-C18 diacid])FVNWLLAGGPSSGAPPPS-NH2),–,–,0.017 nM
CC[C@H](C)[C@H](NC(=O)[C@H](CO)NC(=O)[C@H](Cc1ccc(O)cc1)NC(=O)[C@H](CC(=O)O)NC(=O)[C@H](CO)NC(=O)[C@@H](NC(=O)[C@H](Cc1ccccc1)NC(=O)[C@@H](NC(=O)CNC(=O)[C@H](CCC(=O)O)NC(=O)C(C)(C)NC(=O)[C@@H](N)Cc1ccc(O)cc1)[C@@H](C)O)[C@@H](C)O)C(=O)N[C@@H](Cc1ccc(O)cc1)C(=O)N[C@@H](CC(C)C)C(=O)N[C@@H](CC(=O)O)C(=O)N[C@@H](CCCCN)C(=O)N[C@@H](CCC(N)=O)C(=O)N[C@@H](C)C(=O)N[C@@H](C)C(=O)NC(C)(C)C(=O)N[C@@H](CCCCNC(=O)CC[C@H](NC(=O)CC[C@H](NC(=O)CC[C@H](NC(=O)CCCCCCCCCCCCCCCCC(=O)O)C(=O)O)C(=O)O)C(=O)O)C(=O)N[C@@H](Cc1ccccc1)C(=O)N[C@H](C(=O)N[C@@H](CC(N)=O)C(=O)N[C@@H](Cc1c[nH]c2ccccc12)C(=O)N[C@@H](CC(C)C)C(=O)N[C@@H](CC(C)C)C(=O)N[C@@H](C)C(=O)NCC(=O)NCC(=O)N1CCC[C@H]1C(=O)N[C@@H](CO)C(=O)N[C@@H](CO)C(=O)NCC(=O)N[C@@H](C)C(=O)N1CCC[C@H]1C(=O)N1CCC[C@H]1C(=O)N1CCC[C@H]1C(=O)N[C@@H](CO)C(N)=O)C(C)C [Compound 6] (H-Y[Aib]EGTFTSDYSIYLDKQAA[Aib]K([γGlu-γGlu-γGlu-C18 diacid])FVNWLLAGGPSSGAPPPS-NH2; N-terminus assumed),0.0059 nM,–,0.0023 nM
